Measured values reported in patent publication US20240092750A1, “AQUEOUS FORMULATIONS OF CYTOTOXIC TAXANES WITH CYCLODEXTRIN” (Northwestern University, priority 2022, published 2024).
“Also recorded” adds a separate entry of the source.

Experiments:
Tubulin protein = target: T1, Tubulin protein (Sus scrofa, UniProt P02550+P02554); assay: In vitro tubulin polymerization assay (turbidity at 350 nm); type: biochemical, porcine; conditions: 20 minutes, 37° C.
T1 construct: Tubulin protein (>99% pure, extracted from porcine brain); from tissue; host or cells: porcine brain
Description: Tubulin protein (>99% pure, extracted from porcine brain) was reconstituted in buffer solution (80 mM PIPES pH 6.9, 2 mM MgCl2, 0.5 mM EGTA, and 10% (v/v) glycerol) to a concentration of 1 mg/mL. 100 μL of this tubulin solution was added per well of a black, 96-well plate, which had been warmed to 37° C. prior to the experiment. This was followed by the addition of either guanosine triphosphate (GTP), Paclitaxel (PTX), or ODDA-PTX-CyD, where the final concentration in each respective well was 1 mM GTP, 10 μM PTX, or 10 μM ODDA-PTX-CyD. Changes in turbidity of the samples were monitored via 96-well plate reader at 350 nm, where a recorded increase in optical density supports the formation of microtubules in solution. Each set of conditions were measured in triplicate and monitored over 20 minutes at 37° C.

[1] = Aqueous solubility tests in milliQ water or dPBS
Description: Solubility Tests: To verify ODDA-PTX aqueous solubility, characterization methods in milliQ water or dPBS were performed.

T1 sequence (P02554 whole entry): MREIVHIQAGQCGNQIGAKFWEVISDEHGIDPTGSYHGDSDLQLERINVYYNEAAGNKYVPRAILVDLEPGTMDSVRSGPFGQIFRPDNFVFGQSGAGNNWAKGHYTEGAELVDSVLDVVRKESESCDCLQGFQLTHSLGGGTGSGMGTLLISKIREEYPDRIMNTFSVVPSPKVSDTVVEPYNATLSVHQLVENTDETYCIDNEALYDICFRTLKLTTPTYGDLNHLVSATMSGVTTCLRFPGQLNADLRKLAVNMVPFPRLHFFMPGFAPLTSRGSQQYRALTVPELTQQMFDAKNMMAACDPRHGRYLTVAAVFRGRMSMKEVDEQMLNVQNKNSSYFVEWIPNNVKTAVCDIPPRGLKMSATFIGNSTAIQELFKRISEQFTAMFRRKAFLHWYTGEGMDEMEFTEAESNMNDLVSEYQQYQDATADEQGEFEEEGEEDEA
T1 sequence (P02550 whole entry): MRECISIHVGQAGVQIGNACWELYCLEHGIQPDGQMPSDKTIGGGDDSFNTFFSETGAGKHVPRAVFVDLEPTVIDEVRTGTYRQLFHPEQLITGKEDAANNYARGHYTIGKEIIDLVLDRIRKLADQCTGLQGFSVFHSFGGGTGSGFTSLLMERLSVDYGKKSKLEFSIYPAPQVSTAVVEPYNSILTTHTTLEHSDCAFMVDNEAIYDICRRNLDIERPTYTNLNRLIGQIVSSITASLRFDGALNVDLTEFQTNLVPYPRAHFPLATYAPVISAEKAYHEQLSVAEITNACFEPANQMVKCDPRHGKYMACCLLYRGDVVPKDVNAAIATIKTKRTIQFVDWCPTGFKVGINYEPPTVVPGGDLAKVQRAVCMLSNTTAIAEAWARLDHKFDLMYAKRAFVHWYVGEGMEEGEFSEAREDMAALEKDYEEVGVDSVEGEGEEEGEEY

## Nc1nc2c(ncn2[C@@H]2O[C@H](COP(=O)(O)OP(=O)(O)OP(=O)(O)O)[C@@H](O)[C@H]2O)c(=O)[nH]1 [GTP, guanosine triphosphate]
Tubulin protein; 1 mM GTP
  change in optical density (microtubule formation): did not portray significant increases in optical density

## CC(=O)O[C@H]1C(=O)[C@@]2(C)[C@H]([C@H](OC(=O)c3ccccc3)[C@]3(O)C[C@H](OC(=O)[C@H](OC(=O)CCCCCCCCCCCCCCCCC(=O)O)[C@@H](NC(=O)c4ccccc4)c4ccccc4)C(C)=C1C3(C)C)[C@]1(OC(C)=O)CO[C@@H]1C[C@@H]2O [ODDA-PTX, 1,18-octadecandioic acid-paclitaxel]
[1]; water alone / buffer alone
  solubility in water or buffer alone (in words): insolubility; also recorded: not soluble in water alone
[1]; with respect to ODDA-PTX
  aqueous solubility with respect to ODDA-PTX: 21 µg/mL

## CC(=O)O[C@H]1C(=O)[C@@]2(C)[C@H]([C@H](OC(=O)c3ccccc3)[C@]3(O)C[C@H](OC(=O)[C@H](O)[C@@H](NC(=O)c4ccccc4)c4ccccc4)C(C)=C1C3(C)C)[C@]1(OC(C)=O)CO[C@@H]1C[C@@H]2O [paclitaxel]
Tubulin protein; 10 μM
  change in optical density (microtubule formation): resulted in the formation of microtubules
